# Test results from US11040112B2, “Lipids and lipid nanoparticle formulations for delivery of nucleic acids” (Acuitas Therapeutics, Inc., priority 2015, dated 2021).
# Tests used:
# [1] = Determination of pKa of formulated lipids in lipid nanoparticles (TNS fluorescence assay); type: physicochemical; settings: pKa of cationic lipid in LNP (cationic lipid/DSPC/cholesterol/PEG-lipid 50/10/38.5/1.5 mol %), pH of half-maximal intensity
# Experimental: As described elsewhere, the pKa of formulated cationic lipids is correlated with the effectiveness of LNPs for delivery of nucleic acids (see Jayaraman et al, Angewandte Chemie, International Edition (2012), 51(34), 8529-8533; Semple et al, Nature Biotechnology 28, 172-176 (2010)). The preferred range of pKa is ˜5 to ˜7. […] Lipid nanoparticles comprising of cationic lipid/DSPC/cholesterol/PEG-lipid (50/10/38.5/1.5 mol %) in PBS at a concentration of 0.4 mM total lipid are prepared using the in-line process as described in Example 1. TNS was prepared as a 100 μM stock solution in distilled water. Vesicles were diluted to 24 μM lipid in 2 mL of buffered solutions containing, 10 mM HEPES, 10 mM MES, 10 mM ammonium acetate, 130 mM NaCl, where the pH ranged from 2.5 to 11. An aliquot of the TNS solution was added to give a final concentration of 1 μM and following vortex mixing fluorescence intensity was measured at room temperature in a SLM Aminco Series 2 Luminescence Spectrophotometer using excitation and emission wavelengths of 321 nm and 445 nm. A sigmoidal best fit analysis was applied to the fluorescence data and the pKa was measured as the pH giving rise to half-maximal fluorescence intensity (see FIG. 2).
# [2] = test system: luciferase expression in the liver; test: Luciferase mRNA in vivo evaluation: luciferase expression in the liver after tail vein injection of FLuc mRNA lipid nanoparticles; parameters: species or system mice; settings: liver 4 hours after administration; for Liver Luc @ 0.3 mg/kg (ng luc/g liver): 0.3 mg mRNA/kg; for Liver Luc @ 1.0 mg/kg (ng luc/g liver): 1.0 mg mRNA/kg
# Experimental: Cationic lipid, DSPC, cholesterol and PEG-lipid were solubilized in ethanol at a molar ratio of 50:10:38.5:1.5 or 47.5:10:40.8:1.7. Lipid nanoparticles (LNP) were prepared at a total lipid to mRNA weight ratio of approximately 10:1 to 30:1. Briefly, the mRNA was diluted to 0.2 mg/mL in 10 to 50 mM citrate buffer, pH 4. Syringe pumps were used to mix the ethanolic lipid solution with the mRNA aqueous solution at a ratio of about 1:5 to 1:3 (vol/vol) with total flow rates above 15 ml/min. The ethanol was then removed and the external buffer replaced with PBS by dialysis. Finally, the lipid nanoparticles were filtered through a 0.2 μm pore sterile filter. Lipid nanoparticle particle size was approximately 55-95 nm diameter, and in some instances approximately 70-90 nm diameter as determined by quasi-elastic light scattering using a Malvern Zetasizer Nano ZS (Malvern, UK).
# Studies were performed in 6-8 week old female C57BL/6 mice (Charles River) 8-10 week old CD-1 (Harlan) mice (Charles River) according to guidelines established by an institutional animal care committee (ACC) and the Canadian Council on Animal Care (CCAC). Varying doses of mRNA-lipid nanoparticle were systemically administered by tail vein injection and animals euthanized at a specific time point (e.g 4 hrs) post-administration. Liver and spleen were collected in pre-weighed tubes, weights determined, immediately snap frozen in liquid nitrogen and stored at −80° C. until processing for analysis.
# For liver, approximately 50 mg was dissected for analyses in a 2 mL FastPrep tubes (MP Biomedicals, Solon Ohio). ¼″ ceramic sphere (MP Biomedicals) was added to each tube and 500 μL of Glo Lysis Buffer—GLB (Promega, Madison Wis.) equilibrated to room temperature was added to liver tissue. Liver tissues were homogenized with the FastPrep24 instrument (MP Biomedicals) at 2×6.0 m/s for 15 seconds. Homogenate was incubated at room temperature for 5 minutes prior to a 1:4 dilution in GLB and assessed using SteadyGlo Luciferase assay system (Promega). Specifically, 50 μL of diluted tissue homogenate was reacted with 50 μL of SteadyGlo substrate, shaken for 10 seconds followed by 5 minute incubation and then quantitated using a CentroXS^3 LB 960 luminometer (Berthold Technologies, Germany). The amount of protein assayed was determined by using the BCA protein assay kit (Pierce, Rockford Ill.). Relative luminescence units (RLU) were then normalized to total ug protein assayed. To convert RLU to ng luciferase a standard curve was generated with QuantiLum Recombinant Luciferase (Promega). Based in the data provided in FIG. 1, the four-hour time point was chosen for efficacy evaluation of the lipid formulations.
# The FLuc mRNA (L-6107) from Trilink Biotechnologies will express a luciferase protein, originally isolated from the firefly, Photinus pyralis. FLuc is commonly used in mammalian cell culture to measure both gene expression and cell viability. It emits bioluminescence in the presence of the substrate, luciferin. This capped and polyadenylated mRNA is fully substituted with 5-methylcytidine and pseudouridine.
# The cationic lipids shown in Table 2 have previously been tested with nucleic acids. For comparative purposes, these lipids were also used to formulate lipid nanoparticles containing the FLuc mRNA (L-6107) using an in line mixing method, as described in Example 1 and in PCT/US10/22614, which is hereby incorporated by reference in its entirety. […]
# [3] = Lipid Ratio A: 50% cationic lipid/10% DSPC/38.5% cholesterol/1.5% PEG lipid (PEG-DMA)
# [4] = Lipid Ratio B: 47.5% cationic lipid/10% DSPC/40.8% cholesterol/1.7% PEG lipid
Compound,pKa [1],"Liver Luc @ 0.3 mg/kg (ng luc/g liver) [2, 3] [ng luc/g liver]","Liver Luc @ 1.0 mg/kg (ng luc/g liver) [2, 3] [ng luc/g liver]","Liver Luc @ 0.3 mg/kg (ng luc/g liver) [2, 4] [ng luc/g liver]","Liver Luc @ 1.0 mg/kg (ng luc/g liver) [2, 4] [ng luc/g liver]"
CCCCCCCCC(CCCCCC)C(=O)OCCCCCCN(CCO)CCCCCCOC(=O)C(CCCCCC)CCCCCCCC (stereo not drawn) [Compound 1],5.89,467 ± 72,3780 ± 210,–,–
CCCCCCCCC(CCCCCC)C(=O)OCCCCCCN(CCCO)CCCCCCOC(=O)C(CCCCCC)CCCCCCCC (stereo not drawn) [Compound 2],6.05,1195 ± 245,10059 ± 3833,–,–
CCCCCCCCC(CCCCCC)C(=O)OCCCCCCN(CCCCO)CCCCCCOC(=O)C(CCCCCC)CCCCCCCC (stereo not drawn) [Compound 3],6.09,1275 ± 410,10643 ± 1858,–,–
CCCCCCCCC(CCCCCC)C(=O)OCCCCN(CCCCO)CCCCOC(=O)C(CCCCCC)CCCCCCCC (stereo not drawn) [Compound 4],5.6,378 ± 82,1952 ± 940,–,–
CCCCCCCCC(CCCCCC)C(=O)OCCCCN(CCCO)CCCCOC(=O)C(CCCCCC)CCCCCCCC (stereo not drawn) [Compound 5],5.59,183 ± 45,713 ± 298,–,–
CCCCCCCCC(CCCCCC)C(=O)OCCCCN(CCO)CCCCOC(=O)C(CCCCCC)CCCCCCCC (stereo not drawn) [Compound 6],5.42,122 ± 49,520 ± 365,–,–
CCCCCCCCC(CCCCCC)C(=O)OCCCCCCN(CCCCCO)CCCCCCOC(=O)C(CCCCCC)CCCCCCCC (stereo not drawn) [Compound 7],6.11,1158 ± 136,8406 ± 2335,–,–
CCCCCCCCC(CCCCCC)C(=O)OCCCCCCN(CCCCCCO)CCCCCCOC(=O)C(CCCCCC)CCCCCCCC (stereo not drawn) [Compound 8],5.84,1467 ± 943,7230 ± 2290,–,–
CCCCCCCCC(CCCCCC)COC(=O)CCCCN(CCCCO)CCCCC(=O)OCC(CCCCCC)CCCCCCCC (stereo not drawn) [Compound 15],6.14,247 ± 25,1633 ± 449,–,–
CCCCCCCCC(CCCCCC)COC(=O)CCCCCN(CCCO)CCCCCC(=O)OCC(CCCCCC)CCCCCCCC (stereo not drawn) [Compound 16],6.31,344 ± 133,2633 ± 1140,–,–
CCCCCCCCC(CCCCCC)COC(=O)CCCCCN(CCCCO)CCCCCC(=O)OCC(CCCCCC)CCCCCCCC (stereo not drawn) [Compound 17],6.28,275 ± 139,1554 ± 761,–,–
CCCCCCCCC(CCCCCC)COC(=O)CCCCCCCN(CCCCO)CCCCCCCC(=O)OCC(CCCCCC)CCCCCCCC (stereo not drawn) [Compound 20],6.36,–,–,691 ± 150,4279 ± 2226
CCCCCCCCC(CCCCCC)C(=O)OCCCCCCCCCN(CCCCO)CCCCCCCCCOC(=O)C(CCCCCC)CCCCCCCC (stereo not drawn) [Compound 22],6.1,660 ± 184,7533 ± 4499,–,–
CCCCCCCCC(CCCCCC)C(=O)OCCCCCCCCCCCCN(CCCCO)CCCCCCCCCCCCOC(=O)C(CCCCCC)CCCCCCCC (stereo not drawn) [Compound 23],5.98,137 ± 51,487 ± 209,–,–
CCCCCCC(CCCC)C(=O)OCCCCCCCCCN(CCCCO)CCCCCCCCCOC(=O)C(CCCC)CCCCCC (stereo not drawn) [Compound 25],6.22,1648 ± 534,13880 ± 5083,–,–
CCCCCCCCCCC(CCCCCCCC)C(=O)OCCCCCCN(CCCCO)CCCCCCOC(=O)C(CCCCCCCC)CCCCCCCCCC (stereo not drawn) [Compound 26],5.84,1143 ± 782,1238 ± 1686,–,–
CCCCCCCCCCCCC(CCCCCCCCCC)C(=O)OCCCCCCN(CCCCO)CCCCCCOC(=O)C(CCCCCCCCCC)CCCCCCCCCCCC (stereo not drawn) [Compound 27],5.77,110 ± 42,1088 ± 802,–,–
CCCCCCCCC(CCCCCC)C(=O)OCCCCCCN(CCCCCCOC(=O)C(CCCCCC)CCCCCCCC)CC(O)CO (stereo not drawn) [Compound 30],6.09,49 ± 17,237 ± 92,–,–
CCCCCCCCCCC(CCCCCCCC)C(=O)OCCCCCCN(CCCO)CCCCCCOC(=O)C(CCCCCCCC)CCCCCCCCCC (stereo not drawn) [Compound 37],5.89,1244 ± 907,2035 ± 498,–,–
CCCCCCCCC(CCCCCC)C(=O)OCCCCCCCCCCCCN(CCCO)CCCCCCCCCCCCOC(=O)C(CCCCCC)CCCCCCCC (stereo not drawn) [Compound 38],6.1,60 ± 5,365 ± 181,–,–
CCCCCCCCCCCCC(CCCCCCCCCC)C(=O)OCCCCCCN(CCCO)CCCCCCOC(=O)C(CCCCCCCCCC)CCCCCCCCCCCC (stereo not drawn) [Compound 44],5.79,–,–,23 ± 11,342 ± 229
